Values of other authors as cited in US20070253995A1, “Drug Delivery Methods and Devices for Treating Stress Urinary Incontinence” (Medtronic, Inc., priority 2006, published 2007).

Test system: women with stress urinary incontinence
Details: oral formulation

CNCC[C@H](Oc1cccc2ccccc12)c1cccs1 [duloxetine]
time for side effects to disappear after therapy initiation: 1 to 4 weeks | efficacy in treating stress urinary incontinence (Phase III clinical trial, women): effective | side effects (mostly centrally mediated: nausea, headache, insomnia, dry mouth, dizziness, fatigue) (some patients): significant side effects in some patients
